Test results taken from ChEMBL document CHEMBL1201862, “PubChem BioAssay data set” (2004).
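Grown in 96-well plates, cells were treated for 48 hours with each compound at five concentrations. Insufficient inhibition: endpoint recorded as highest concentration tested. Here, GI50 denotes the concentration required for 50% inhibition of growth.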 Calls of active or inactive are those of the source. Cut-off read from the data, not from the text of the source: active = GI50 up to about 1.1 µM and inactive = higher.

Key:
Assay in all cases: DTP human tumour cell line panel, 48 h
K562 = tested on: K562
SK-MEL-2 = tested on: SK-MEL-2
SK-OV-3 = tested on: SK-OV-3
CAKI-1 = tested on: CAKI-1
NCI-H460 = tested on: NCI-H460
A549 = tested on: A549
UO-31 = tested on: UO-31
SN12C = tested on: SN12C
MDA-N = tested on: MDA-N
TK-10 = tested on: TK-10
IGROV-1 = tested on: IGROV-1
MDA-MB-435 = tested on: MDA-MB-435
HT-29 = tested on: HT-29
LOX IMVI = tested on: LOX IMVI
MOLT-4 = tested on: MOLT-4
786-0 = tested on: 786-0
CCRF-CEM = tested on: CCRF-CEM
DU-145 = tested on: DU-145
SF-539 = tested on: SF-539
RPMI-8226 = tested on: RPMI-8226

Measured: GI50

CC1=C[C@H](O)[C@@]2(C)[C@@H]([C@@H]1C)[C@H]1CC[C@@H]3[C@@]4(C)CC[C@H](O)C(C)(C)[C@@H]4CC[C@@]3(C)[C@]1(C)C[C@@H]2O
inactive: K562 19.6 µM | SK-MEL-2 23.3 µM | SK-OV-3 18.4 µM | CAKI-1 20.8 µM | NCI-H460 18.9 µM | A549 12.8 µM | UO-31 18.6 µM | SN12C 15.2 µM | MDA-N 15.8 µM | TK-10 22.2 µM | IGROV-1 20.5 µM | MDA-MB-435 20.7 µM | HT-29 13.8 µM | LOX IMVI 21.5 µM | MOLT-4 13.7 µM | 786-0 14 µM | CCRF-CEM 16.9 µM | DU-145 16.4 µM

COC(=O)C1=CC(=O)OC1(OO)c1ccc(Br)cc1 (stereo unspecified)
inactive: K562 33.7 µM | SK-MEL-2 > 100 µM | SK-OV-3 > 100 µM | CAKI-1 > 100 µM | NCI-H460 > 100 µM | A549 > 100 µM | UO-31 > 100 µM | SN12C > 100 µM | MDA-N > 100 µM | SF-539 > 100 µM | TK-10 > 100 µM | IGROV-1 > 100 µM | MDA-MB-435 > 100 µM | HT-29 57.4 µM | LOX IMVI 48.5 µM | MOLT-4 31.8 µM | 786-0 65.2 µM | CCRF-CEM 27 µM | DU-145 > 100 µM

Nc1nc(SCCc2ccccc2)c2nc[nH]c2n1
inactive: K562 48.1 µM | SK-MEL-2 30.7 µM | CAKI-1 61.9 µM | NCI-H460 33.9 µM | A549 > 100 µM | UO-31 60.7 µM | SN12C 39.4 µM | MDA-N 55.7 µM | TK-10 19.6 µM | IGROV-1 51.1 µM | MDA-MB-435 81.7 µM | HT-29 41.1 µM | LOX IMVI 41.8 µM | MOLT-4 33.6 µM | 786-0 78.2 µM | CCRF-CEM 31.2 µM | DU-145 36.2 µM

OC(CN1CCCCC1)c1ccc(/C=C/c2ccc(Cl)cc2)cc1 (stereo unspecified)
inactive: K562 37.3 µM | SK-MEL-2 27.2 µM | SK-OV-3 > 100 µM | NCI-H460 54.6 µM | A549 > 100 µM | UO-31 50.4 µM | SN12C > 100 µM | MDA-N 56.9 µM | SF-539 43.6 µM | TK-10 > 100 µM | IGROV-1 26.2 µM | MDA-MB-435 54.3 µM | HT-29 12 µM | MOLT-4 > 100 µM | 786-0 56.5 µM | CCRF-CEM 70.5 µM | DU-145 > 100 µM | RPMI-8226 27.6 µM

O=NN(CCCl)C(=O)NC1CCCCC1 [LOMUSTINE]
inactive: K562 22 µM | SK-MEL-2 74.3 µM | SK-OV-3 71.8 µM | NCI-H460 36.1 µM | A549 51.6 µM | UO-31 84.1 µM | SN12C 46.6 µM | MDA-N 18.7 µM | SF-539 24 µM | TK-10 73.1 µM | IGROV-1 47 µM | MDA-MB-435 3.36 µM | HT-29 53.8 µM | LOX IMVI 9.91 µM | MOLT-4 18.4 µM | 786-0 16.4 µM | CCRF-CEM 13 µM | DU-145 42.1 µM | RPMI-8226 16.9 µM

O=C(Nc1ccccc1)c1cc2ccccc2c(/N=N\c2cccc([N+](=O)[O-])c2)c1O
inactive: K562 89.3 µM | SK-MEL-2 > 100 µM | SK-OV-3 30.3 µM | CAKI-1 > 100 µM | NCI-H460 > 100 µM | A549 > 100 µM | UO-31 > 100 µM | SN12C > 100 µM | MDA-N > 100 µM | SF-539 54.8 µM | TK-10 > 100 µM | IGROV-1 37.7 µM | MDA-MB-435 > 100 µM | HT-29 > 100 µM | MOLT-4 > 100 µM | 786-0 31.3 µM | CCRF-CEM > 100 µM | DU-145 > 100 µM

COc1ccc(-c2c(C(C)=O)c(-c3ccccc3)n(C3OC(CO)C(O)C(O)C3O)c(=S)c2C#N)cc1 (stereo unspecified)
inactive: K562 > 100 µM | SK-OV-3 > 100 µM | CAKI-1 > 100 µM | NCI-H460 > 100 µM | A549 > 100 µM | UO-31 4 µM | SN12C > 100 µM | MDA-N > 100 µM | SF-539 > 100 µM | TK-10 > 100 µM | IGROV-1 > 100 µM | MDA-MB-435 > 100 µM | HT-29 > 100 µM | LOX IMVI > 100 µM | MOLT-4 > 100 µM | 786-0 > 100 µM | CCRF-CEM > 100 µM | DU-145 > 100 µM

Cc1ccc(S(=O)(=O)N2CCNCCN(S(=O)(=O)c3ccc(C)cc3)CCNCC2)cc1
inactive: K562 14.2 µM | SK-MEL-2 19.8 µM | SK-OV-3 20.4 µM | CAKI-1 27.6 µM | NCI-H460 14.7 µM | A549 34.2 µM | UO-31 19.8 µM | SN12C 29.6 µM | MDA-N 20.2 µM | SF-539 19.1 µM | TK-10 18.3 µM | IGROV-1 19.7 µM | MDA-MB-435 18.1 µM | HT-29 14.1 µM | LOX IMVI 12.5 µM | 786-0 18.7 µM | DU-145 19.5 µM

c1ccc2c3nnc(c2c1)SCCSCCCSCCS3
inactive: K562 > 100 µM | SK-MEL-2 58.7 µM | SK-OV-3 27.8 µM | CAKI-1 39.7 µM | NCI-H460 > 100 µM | A549 91 µM | UO-31 44.3 µM | SN12C 53.8 µM | MDA-N > 100 µM | SF-539 12.6 µM | TK-10 48 µM | IGROV-1 34.4 µM | MDA-MB-435 > 100 µM | HT-29 > 100 µM | LOX IMVI > 100 µM | 786-0 29.1 µM | CCRF-CEM > 100 µM | DU-145 > 100 µM

CCOC(=O)c1c(SC(=O)c2ccc(OC)cc2)n(-c2ccccc2)c(=S)n(-c2ccccc2)c1=O
inactive: K562 42.5 µM | SK-OV-3 > 100 µM | CAKI-1 > 100 µM | NCI-H460 84.7 µM | A549 > 100 µM | SN12C 76.9 µM | MDA-N > 100 µM | SF-539 21.2 µM | TK-10 > 100 µM | IGROV-1 21.1 µM | MDA-MB-435 54.6 µM | HT-29 46.1 µM | LOX IMVI 36.3 µM | MOLT-4 22.5 µM | 786-0 37.8 µM | CCRF-CEM 35.6 µM | DU-145 > 100 µM

COI1NC(=O)c2ccccc21
inactive: K562 > 100 µM | SK-MEL-2 > 100 µM | SK-OV-3 > 100 µM | A549 > 100 µM | UO-31 > 100 µM | SN12C > 100 µM | MDA-N > 100 µM | TK-10 > 100 µM | IGROV-1 > 100 µM | MDA-MB-435 > 100 µM | HT-29 > 100 µM | LOX IMVI > 100 µM | MOLT-4 > 100 µM | 786-0 > 100 µM | CCRF-CEM 60.4 µM | DU-145 > 100 µM | RPMI-8226 > 100 µM
